Measurements taken from patent publication US10457703B2, “Bile acid derivatives as FXR/TGR5 agonists and methods of use thereof” (ENANTA PHARMACEUTICALS, INC., priority 2015, dated 2019).

Target: human FXR (NR1H4) (Homo sapiens (Human), UniProt Q96RI1)
Test: Human FXR (NR1H4) Assay (Gal4 promoter driven luciferase reporter, Indigo Bioscience kit);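 on Efficacy (%): 100% equals the efficacy of CDCA; efficacy normalized to CDCA set as 100%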
Type: cell-based
Settings: for EC50: Human FXR (NR1H4) Assay, potency ranges; for Emax: read-out: Efficacy (%)
Text: ASSAYS Human FXR (NR1H4) Assay
Determination of a ligand mediated Gal4 promoter driven transactivation to quantify ligand binding mediated activation of FXR. FXR Reporter Assay kit purchased from Indigo Bioscience (Catalogue number: IB00601) to determine the potency and efficacy of compound developed by Enanta that can induce FXR activation. The principle application of this reporter assay system is to quantify functional activity of human FXR. The assay utilizes non-human mammalian cells, CHO (Chinese hamster ovary) cells engineered to express human NR1H4 protein (referred to as FXR). Reporter cells also incorporate the cDNA encoding beetle luciferase which catalyzes the substrates and yields photon emission. Luminescence intensity of the reaction is quantified using a plate-reading luminometer, Envision. Reporter Cells include the luciferase reporter gene functionally linked to an FXR responsive promoter. Thus, quantifying changes in luciferase expression in the treated reporter cells provides a sensitive surrogate measure of the changes in FXR activity. […] The assay is according to the manufacturer's instructions. In brief, the assay was performed in white, 96 well plates using final volume of 100 uL containing cells with different doses of compounds. Retrieve Reporter Cells from −80° C. storage. Perform a rapid thaw of the frozen cells by transferring a 10 ml volume of 37° C. cell recovery medium into the tube of frozen cells. Recap the tube of Reporter Cells and immediately place it in a 37° C. water bath for 5-10 minutes. Retrieve the tube of Reporter Cell Suspension from the water bath. Sanitize the outside surface of the tube with a 70% alcohol swab, and then transfer it into the cell culture hood. Dispense 90 μl of cell suspension into each well of the 96-well Assay Plate. Transfer the plate into 37° C. incubator, allowing the cells adherent to the bottom of the well. Dilute compounds in Dilution Plate (DP), and administrate to cells at Assay Plate (AP). DMSO content of the samples was kept at 0.2%. Cells were incubated for additional 22 hours before luciferase activities were measured. Thirty minutes before intending to quantify FXR activity, remove Detection Substrate and Detection Buffer from the refrigerator and place them in a low-light area so that they may equilibrate to room temperature. Remove the plate's lid and discard all media contents by ejecting it into an appropriate waste container. Gently tap the inverted plate onto a clean absorbent paper towel to remove residual droplets. Cells will remain tightly adhered to well bottoms. Add 100 μl of luciferase detection reagent to each well of the assay plate. Allow the assay plate to rest at room temperature for at least 5 minutes following the addition of LDR. Set the instrument (Envision) to perform a single 5 second “plate shake” prior to reading the first assay well. Read time may be 0.5 second (500 mSec) per well.

Sequence of human FXR (NR1H4) (Q96RI1 whole entry, the tested form may be a part): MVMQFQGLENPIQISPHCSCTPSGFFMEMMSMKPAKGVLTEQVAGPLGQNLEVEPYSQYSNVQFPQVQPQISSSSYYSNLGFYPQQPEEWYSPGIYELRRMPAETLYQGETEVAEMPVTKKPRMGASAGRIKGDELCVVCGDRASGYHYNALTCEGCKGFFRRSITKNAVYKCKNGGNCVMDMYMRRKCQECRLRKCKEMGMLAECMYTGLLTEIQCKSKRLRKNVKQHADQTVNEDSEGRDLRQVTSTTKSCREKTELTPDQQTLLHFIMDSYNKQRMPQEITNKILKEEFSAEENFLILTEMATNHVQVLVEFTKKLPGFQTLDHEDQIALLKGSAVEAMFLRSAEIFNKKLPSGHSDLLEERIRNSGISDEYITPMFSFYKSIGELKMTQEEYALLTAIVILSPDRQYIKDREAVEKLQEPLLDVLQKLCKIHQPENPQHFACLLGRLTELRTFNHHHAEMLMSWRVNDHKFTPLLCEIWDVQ

Structure (SMILES): CC[C@H]1[C@@H](O)[C@@H]2[C@H](CC[C@]3(C)[C@@H]([C@H](C)COC(=O)NS(=O)(=O)c4ccc(-n5ccnc5)cc4)CC[C@@H]23)[C@@]2(C)CC[C@@H](O)C[C@@H]12 [Example 44-h]
- EC50: 100 to 1000 nM
- Emax: 194%

Structure (SMILES): CC[C@H]1[C@@H](O)[C@@H]2[C@H](CC[C@]3(C)[C@@H]([C@H](C)CCOC(=O)N[C@H]4CC[C@H](O)CC4)CC[C@@H]23)[C@@]2(C)CC[C@@H](O)C[C@@H]12 [Example 185]
- EC50: 100 to 1000 nM
- Emax: 392%

Structure (SMILES): CC[C@H]1[C@@H](O)[C@@H]2[C@H](CC[C@]3(C)[C@@H]([C@H](C)CCOC(=O)NS(=O)(=O)c4ccc(OC(F)(F)F)cc4)CC[C@@H]23)[C@@]2(C)CC[C@@H](O)C[C@@H]12 [Example 53]
- EC50: < 100 nM
- Emax: 411%

Structure (SMILES): CC[C@H]1[C@@H](O)[C@@H]2[C@H](CC[C@]3(C)[C@@H]([C@H](C)CCOC(=O)NS(=O)(=O)C[C@]45CCC(CC4=O)C5(C)C)CC[C@@H]23)[C@@]2(C)CC[C@@H](O)C[C@@H]12 [Example 58]
- EC50: < 100 nM
- Emax: 366%

Structure (SMILES): CC[C@H]1[C@@H](O)[C@@H]2[C@H](CC[C@]3(C)[C@@H]([C@H](C)COC(=O)NS(=O)(=O)c4ccc(-n5ccnn5)nc4)CC[C@@H]23)[C@@]2(C)CC[C@@H](O)C[C@@H]12 [Example 44-n]
- EC50: 100 to 1000 nM
- Emax: 307%

Structure (SMILES): CC[C@H]1[C@@H](O)[C@@H]2[C@H](CC[C@]3(C)[C@@H]([C@H](C)COC(=O)NCc4ccccc4)CC[C@@H]23)[C@@]2(C)CC[C@@H](O)C[C@@H]12 [Example 205]
- EC50: 1000 to 10000 nM
- Emax: 5%

Structure (SMILES): CC[C@H]1[C@@H](O)[C@@H]2[C@H](CC[C@]3(C)[C@@H]([C@H](C)COC(=O)NS(=O)(=O)c4ccc(N5CCC5)cc4)CC[C@@H]23)[C@@]2(C)CC[C@@H](O)C[C@@H]12 [Example 17]
- EC50: < 100 nM
- Emax: 211%

Structure (SMILES): CC[C@H]1[C@@H](O)[C@@H]2[C@H](CC[C@]3(C)[C@@H]([C@H](C)CCOC(=O)N4CCC[C@@H]4CO)CC[C@@H]23)[C@@]2(C)CC[C@@H](O)C[C@@H]12 [Example 209]
- EC50: < 100 nM
- Emax: 199%

Structure (SMILES): CC[C@H]1[C@@H](O)[C@@H]2[C@H](CC[C@]3(C)[C@@H]([C@H](C)CCCOC(=O)NS(=O)(=O)N(C)C)CC[C@@H]23)[C@@]2(C)CC[C@@H](O)C[C@@H]12 [Example 118]
- EC50: 100 to 1000 nM
- Emax: 367%

Structure (SMILES): CC[C@H]1[C@@H](O)[C@@H]2[C@H](CC[C@]3(C)[C@@H]([C@H](C)COC(=O)NS(=O)(=O)c4ccc(N5CCC(C)(C)CC5)cc4)CC[C@@H]23)[C@@]2(C)CC[C@@H](O)C[C@@H]12 [Example 20]
- EC50: < 100 nM
- Emax: 203%

Structure (SMILES): CC[C@H]1[C@@H](O)[C@@H]2[C@H](CC[C@]3(C)[C@@H]([C@H](C)CCOC(=O)NS(=O)(=O)CC)CC[C@@H]23)[C@@]2(C)CC[C@@H](O)C[C@@H]12 [Example 98]
- EC50: 100 to 1000 nM
- Emax: 279%

Structure (SMILES): CC[C@H]1[C@@H](O)[C@@H]2[C@H](CC[C@]3(C)[C@@H]([C@H](C)CCOC(=O)N(CCO)CCO)CC[C@@H]23)[C@@]2(C)CC[C@@H](O)C[C@@H]12 [Example 179]
- EC50: 100 to 1000 nM
- Emax: 333%

Structure (SMILES): CC[C@H]1[C@@H](O)[C@@H]2[C@H](CC[C@]3(C)[C@@H]([C@H](C)COC(=O)NS(=O)(=O)c4ccc(-c5ccc(F)cc5)cc4)CC[C@@H]23)[C@@]2(C)CC[C@@H](O)C[C@@H]12 [Example 28]
- EC50: < 100 nM
- Emax: 194%

Structure (SMILES): CC[C@H]1[C@@H](O)[C@@H]2[C@H](CC[C@]3(C)[C@@H]([C@H](C)CCOC(=O)NC4(C)CC4)CC[C@@H]23)[C@@]2(C)CC[C@@H](O)C[C@@H]12 [Example 135]
- EC50: 100 to 1000 nM
- Emax: 224%

Structure (SMILES): CC[C@H]1[C@@H](O)[C@@H]2[C@H](CC[C@]3(C)[C@@H]([C@H](C)COC(=O)NS(=O)(=O)c4ccc(-c5ccc(OC(F)(F)F)cc5)s4)CC[C@@H]23)[C@@]2(C)CC[C@@H](O)C[C@@H]12 [Example 26]
- EC50: 100 to 1000 nM
- Emax: 206%

Structure (SMILES): CC[C@H]1[C@@H](O)[C@@H]2[C@H](CC[C@]3(C)[C@@H]([C@H](C)CCOC(=O)NS(=O)(=O)c4ccc(-c5ccccc5)cc4)CC[C@@H]23)[C@@]2(C)CC[C@@H](O)C[C@@H]12 [Example 68]
- EC50: 100 to 1000 nM
- Emax: 286%

Structure (SMILES): CC[C@H]1[C@@H](O)[C@@H]2[C@H](CC[C@]3(C)[C@@H]([C@H](C)COC(=O)NS(=O)(=O)c4ccc(-c5ccncc5)cc4)CC[C@@H]23)[C@@]2(C)CC[C@@H](O)C[C@@H]12 [Example 35]
- EC50: 100 to 1000 nM
- Emax: 152%

Structure (SMILES): CC[C@H]1[C@@H](O)[C@@H]2[C@H](CC[C@]3(C)[C@@H]([C@H](C)COC(=O)NS(=O)(=O)c4ccc(OC)cc4)CC[C@@H]23)[C@@]2(C)CC[C@@H](O)C[C@@H]12 [Example 44-k]
- EC50: < 100 nM
- Emax: 158%

Structure (SMILES): CC[C@H]1[C@@H](O)[C@@H]2[C@H](CC[C@]3(C)[C@@H]([C@H](C)COC(=O)NS(=O)(=O)c4ccc(-n5cccn5)nc4)CC[C@@H]23)[C@@]2(C)CC[C@@H](O)C[C@@H]12 [Example 16]
- EC50: < 100 nM
- Emax: 187%

Structure (SMILES): CC[C@H]1[C@@H](O)[C@@H]2[C@H](CC[C@]3(C)[C@@H]([C@H](C)CCOC(=O)NS(=O)(=O)c4cccc5ccccc45)CC[C@@H]23)[C@@]2(C)CC[C@@H](O)C[C@@H]12 [Example 81]
- EC50: < 100 nM
- Emax: 372%

Structure (SMILES): CC[C@H]1[C@@H](O)[C@@H]2[C@H](CC[C@]3(C)[C@@H]([C@H](C)CCOC(=O)NS(=O)(=O)c4ccc(OC(F)(F)F)c(F)c4)CC[C@@H]23)[C@@]2(C)CC[C@@H](O)C[C@@H]12 [Example 104-k]
- EC50: 100 to 1000 nM
- Emax: 180%

Structure (SMILES): CC[C@H]1[C@@H](O)[C@@H]2[C@H](CC[C@]3(C)[C@@H]([C@H](C)CCOC(=O)N(C)OC)CC[C@@H]23)[C@@]2(C)CC[C@@H](O)C[C@@H]12 [Example 164]
- EC50: 100 to 1000 nM
- Emax: 191%

Structure (SMILES): CC[C@H]1[C@@H](O)[C@@H]2[C@H](CC[C@]3(C)[C@@H]([C@H](C)CCOC(=O)Nc4ccccc4)CC[C@@H]23)[C@@]2(C)CC[C@@H](O)C[C@@H]12 [Example 191]
- EC50: 1000 to 10000 nM
- Emax: 330%

Structure (SMILES): CCCCCNC(=O)OCC[C@@H](C)[C@H]1CC[C@H]2[C@@H]3[C@H](O)[C@H](CC)[C@@H]4C[C@H](O)CC[C@]4(C)[C@H]3CC[C@]12C [Example 150]
- EC50: 100 to 1000 nM
- Emax: 303%

Structure (SMILES): CC[C@H]1[C@@H](O)[C@@H]2[C@H](CC[C@]3(C)[C@@H]([C@H](C)COC(=O)NS(=O)(=O)c4ccc5ncccc5c4)CC[C@@H]23)[C@@]2(C)CC[C@@H](O)C[C@@H]12 [Example 23]
- EC50: < 100 nM
- Emax: 182%

Structure (SMILES): CC[C@H]1[C@@H](O)[C@@H]2[C@H](CC[C@]3(C)[C@@H]([C@H](C)CCOC(=O)NS(=O)(=O)C4(C)CC4)CC[C@@H]23)[C@@]2(C)CC[C@@H](O)C[C@@H]12 [Example 49]
- EC50: < 100 nM
- Emax: 269%

Structure (SMILES): CC[C@H]1[C@@H](O)[C@@H]2[C@H](CC[C@]3(C)[C@@H]([C@H](C)CCOC(=O)NCCCN4CCOCC4)CC[C@@H]23)[C@@]2(C)CC[C@@H](O)C[C@@H]12 [Example 152]
- EC50: 100 to 1000 nM
- Emax: 276%

Structure (SMILES): CC[C@H]1[C@@H](O)[C@@H]2[C@H](CC[C@]3(C)[C@@H]([C@H](C)COC(=O)NS(=O)(=O)c4ccc(C(C)(C)C)s4)CC[C@@H]23)[C@@]2(C)CC[C@@H](O)C[C@@H]12 [Example 44-j]
- EC50: < 100 nM
- Emax: 170%

Structure (SMILES): CC[C@H]1[C@@H](O)[C@@H]2[C@H](CC[C@]3(C)[C@@H]([C@H](C)COC(=O)NS(=O)(=O)c4ccc(Oc5ccccc5)cc4)CC[C@@H]23)[C@@]2(C)CC[C@@H](O)C[C@@H]12 [Example 31]
- EC50: 100 to 1000 nM
- Emax: 207%

Structure (SMILES): CC[C@H]1[C@@H](O)[C@@H]2[C@H](CC[C@]3(C)[C@@H]([C@H](C)CCCOC(=O)N4CCOCC4)CC[C@@H]23)[C@@]2(C)CC[C@@H](O)C[C@@H]12 [Example 130]
- EC50: 1000 to 10000 nM
- Emax: 256%
